Assay results taken from patent US20250064789A1, “KETOAMIDE DERIVATIVES AND PHARMACEUTICAL USES THEREOF” (priority 2022, published 2025).
Read-outs that look alike come from different tables or passages of the source.

How the values were obtained:
[1] = target: recombinant SARS-CoV-2 M^pro (Severe acute respiratory syndrome coronavirus 2 (2019-nCoV) (SARS-CoV-2), UniProt P0DTD1); experiment: Inhibition of SARS-CoV-2 M^pro enzyme activity (fluorescent substrate assay); type: biochemical; details: inhibition of SARS-CoV-2 M^pro enzyme activity, read-out: IC50
[2] = Metabolic stability using human liver microsomes; type: in vitro ADME; details: pH 7.4, NADPH, 37° C., read-out: Human liver microsomes T1/2

Compound	IC50 ([1]; values in nM) [nM]	further results
COC[C@@H](NC(=O)C1CCCC(F)(F)C1)C(=O)N[C@H](Cc1ccccc1)C(=O)C(=O)NCc1ccccn1 (stereo partly shown) [Compound 557]	26.1 ± 0.4	–
COC[C@@H](NC(=O)C1CCCC(F)(F)C1)C(=O)N[C@H](Cc1ccccc1)C(=O)C(=O)NCc1nnc(C)o1 (stereo partly shown) [Compound 559]	–	IC50 ([1]; values given in μM): > 2500 nM
COC[C@@H](NC(=O)C1CCCC(F)(F)C1)C(=O)N[C@H](Cc1ccccc1)C(=O)C(=O)NCc1cocn1 (stereo partly shown) [Compound 560]	22.1 ± 0.7	–
COC[C@@H](NC(=O)C1CCCC(F)(F)C1)C(=O)N[C@H](Cc1ccccc1)C(=O)C(=O)NCc1ncon1 (stereo partly shown) [Compound 562]	–	IC50 ([1]; values given in μM): > 2500 nM
COC[C@@H](NC(=O)C1CCCC(F)(F)C1)C(=O)N[C@H](Cc1ccccc1)C(=O)C(=O)NCc1ncno1 (stereo partly shown) [Compound 563]	–	IC50 ([1]; values given in μM): > 2500 nM
COC[C@@H](NC(=O)C1CCCC(F)(F)C1)C(=O)N[C@H](Cc1ccccc1)C(=O)C(=O)NCc1ncsn1 (stereo partly shown) [Compound 564]	774 ± 8.8	–
COC[C@@H](NC(=O)C1CCCC(F)(F)C1)C(=O)N[C@H](Cc1cccc(Cl)c1)C(=O)C(=O)NCc1nccs1 (stereo partly shown) [Compound 566]	33.2 ± 2.3	–
O=C(NCc1nccs1)C(=O)[C@@H](Cc1ccccc1)NC(=O)[C@@H](CO)NC(=O)C1CCCC(F)(F)C1 (stereo partly shown) [Compound 567]	63.6 ± 2.9	–
CS(=O)(=O)CC[C@@H](NC(=O)C1CCCC(F)(F)C1)C(=O)N[C@H](Cc1ccccc1)C(=O)C(=O)NCc1nccs1 (stereo partly shown) [Compound 568]	70.7 ± 1.8	–
CS(=O)(=O)CC[C@@H](NC(=O)CC1CC(F)(F)C1)C(=O)N[C@H](Cc1ccccc1)C(=O)C(=O)NCc1nccs1 [Compound 569]	18.8 ± 0.9	–
O=C(NCc1nccs1)C(=O)[C@@H](Cc1ccccc1)NC(=O)[C@@H](CO)NC(=O)C1CCCC(F)(F)C1 (stereo partly shown) [Compound 570]	40.6 ± 2	–
O=C(O)C[C@@H](NC(=O)CC1CC(F)(F)C1)C(=O)N[C@H](Cc1ccccc1)C(=O)C(=O)NCc1nccs1 [Compound 572]	33.8 ± 2.5	–
COC(=O)C[C@@H](NC(=O)CC1CC(F)(F)C1)C(=O)N[C@H](Cc1ccccc1)C(=O)C(=O)NCc1nccs1 [Compound 574]	14.4 ± 0.8	–
CNC(=O)C[C@@H](NC(=O)CC1CC(F)(F)C1)C(=O)N[C@H](Cc1ccccc1)C(=O)C(=O)NCc1nccs1 [Compound 575]	23.5 ± 0.9	–
CC(C)(C)[C@H](NC(=O)C(F)(F)F)C(=O)N1C[C@H]2[C@@H]([C@H]1C(=O)N[C@H](C#N)C[C@@H]1CCNC1=O)C2(C)C [PF-07321332, Nirmatrelvir, reference compound]	–	half-life at 1 µM [2]: 21.2 min
(R)-3-((R)-2-(benzyloxy)propionamido)-N-((5-chloropyridin-2-yl)methyl)-4-(4-fluorophenyl)-2-oxobutyramide [Compound 52]	44.2 ± 3.4	–
